Some test systems named below: SW-620; HOP-62; A549; K562; NCI-H522; U-251; SNB-19; OVCAR-3; COLO 205; HCC 2998; HOP-92; M14; SF-268; MOLT-4; EKVX; SN12C; SK-MEL-28; RXF 393; NCI-H226.
Holding throughout (experiment): inhibition of tumour cell growth, NCI panel, 48 h

Where “and” joins values, the source holds several entries; their conditions need not be identical. Equal entries are not always repeated.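 Cells were grown in 96-well plates and exposed to each compound for 48 hours at five concentrations; endpoints were interpolated linearly between bracketing concentrations, or set to the highest concentration if not reached. GI50 = concentration required for 50% inhibition of growth.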 Calls of active or inactive are those of the source. Rule as the data show it: active = GI50 up to about 1.1 µM and inactive = higher.

Take `C=CCn1c(=S)sc2c(O)ncnc21`: the GI50 in the test on SW-620 is > 100 µM (inactive); in the test on HOP-62 it was > 100 µM (inactive); in the test with A549 it was > 100 µM (inactive); with K562, > 100 µM (inactive); in the test with NCI-H522 it was > 100 µM (inactive); with U-251 it was 48.8 µM (inactive). Moreover, the GI50 was > 100 µM (inactive) in the test on SNB-19; > 100 µM (inactive) with OVCAR-3; > 100 µM (inactive) in the test on COLO 205; > 100 µM (inactive) in the test with HCC 2998; 94 µM (inactive) in the test on HOP-92; > 100 µM (inactive) in the test with M14. The GI50 in the test on SF-268, in the test with MOLT-4, with EKVX and in the test with SN12C was > 100 µM (inactive) in each case.
On to `Sc1nnc(-c2cccnc2)[nH]1`, for which the GI50 in the test with SW-620, in the test on HOP-62, in the test on A549, with U-251, with SNB-19 and with SK-MEL-28 was > 100 µM (inactive) each time. The GI50 with COLO 205, with HCC 2998, in the test with HOP-92, in the test with M14, with SF-268 and in the test with RXF 393 was > 100 µM (inactive) in each case. Also, in the test with SN12C, the GI50 is > 100 µM (inactive).
As for `COC(=O)C(Cc1nc2ccccc2nc1C)/C(=N\NC(N)=O)C(=O)Nc1cccc([N+](=O)[O-])c1` (stereo not drawn), the GI50 with SW-620 is > 100 µM (inactive); with HOP-62 it was > 100 µM (inactive); in the test on A549, > 100 µM (inactive); in the test with K562 it was 64.3 µM (inactive); in the test on NCI-H522 it was 10.8 µM (inactive); in the test with U-251, 37.6 µM (inactive). Besides, the GI50 with SNB-19 is > 100 µM (inactive); in the test with OVCAR-3, 51.2 µM (inactive); with SK-MEL-28, > 100 µM (inactive); in the test on COLO 205, 88.3 µM (inactive); in the test on HCC 2998, > 100 µM (inactive); in the test with NCI-H226, > 100 µM (inactive). The GI50 with M14 is > 100 µM (inactive); with SF-268 it was 64.9 µM (inactive); in the test with MOLT-4 it was 57.5 µM (inactive); in the test on EKVX, > 100 µM (inactive); with RXF 393, 36.8 µM (inactive); in the test with SN12C, > 100 µM (inactive).
Regarding `Cc1ccc(N2C(=O)/C(=C3\Sc4c(nc(C)[nH]c4=O)N3c3ccccc3)SC2=S)cc1`, the GI50 in the test on SW-620 was > 100 µM (inactive); with HOP-62, 10.4 µM (inactive); with A549, 43 µM (inactive); in the test with K562 it was 32 µM (inactive); with NCI-H522, 48.4 µM (inactive); in the test with U-251, 17.3 µM (inactive). In addition, the GI50 in the test with SNB-19 was 37.3 µM (inactive); with OVCAR-3, 18.4 µM (inactive); with SK-MEL-28, > 100 µM (inactive); in the test on COLO 205, > 100 µM (inactive); with NCI-H226, 30.5 µM (inactive); with HOP-92 it was 41.5 µM (inactive). Further, the GI50 in the test on M14 was 19.7 µM (inactive); in the test with SF-268 it was 75.2 µM (inactive); with EKVX it was 91.8 µM (inactive); in the test on SN12C, > 100 µM (inactive).
On to `Clc1cc2n[se]nc2cc1Cl`, for which the GI50 in the test on SW-620, in the test on HOP-62, in the test with A549, with K562, in the test with U-251 and in the test with SNB-19 was > 100 µM (inactive) each time. Further, the GI50 in the test on SK-MEL-28, in the test with HCC 2998, in the test on M14, with SF-268, in the test with MOLT-4 and with EKVX was > 100 µM (inactive) in each case. Besides, the GI50 in the test on RXF 393 and in the test on SN12C was > 100 µM (inactive) in each case.
As to `COc1cccc2c(SCC(=O)Nc3ccccc3-c3ccccc3NC(=O)CSc3c4ccccc4nc4c(OC)cccc34)c3ccccc3nc12`, the GI50 is > 100 µM (inactive) in the test with HOP-62; > 100 µM (inactive) with A549; 74.3 µM (inactive) in the test on K562; > 100 µM (inactive) with U-251; > 100 µM (inactive) in the test on SNB-19; > 100 µM (inactive) in the test on OVCAR-3. The GI50 is > 100 µM (inactive) in the test with SK-MEL-28; > 100 µM (inactive) in the test on COLO 205; > 100 µM (inactive) in the test with HCC 2998; > 100 µM (inactive) in the test on NCI-H226; 60.1 µM (inactive) in the test on M14; 45.4 µM (inactive) with SF-268. Besides, the GI50 in the test on MOLT-4 was > 100 µM (inactive); with EKVX, 21.7 µM (inactive); in the test on RXF 393, 57.9 µM (inactive); in the test on SN12C it was > 100 µM (inactive).
As for `NC1=NS(=O)(=O)Nc2nc(-c3ccc(Cl)cc3)c(-c3ccc(Cl)cc3)nc21`, the GI50 in the test on SW-620 is > 100 µM (inactive); in the test with HOP-62 it was > 100 µM (inactive); in the test on A549, > 100 µM (inactive); in the test with K562, 34 µM (inactive); in the test with NCI-H522, 48 µM (inactive); in the test with U-251, 65.8 µM (inactive). The GI50 with SNB-19, with OVCAR-3, in the test with SK-MEL-28, in the test on COLO 205, with HCC 2998 and in the test with HOP-92 was > 100 µM (inactive) in each case. Besides, the GI50 in the test on M14, with SF-268, with MOLT-4, in the test with RXF 393 and in the test with SN12C was > 100 µM (inactive) throughout.
On to `Nc1ccc(C(=O)O)c2[nH]c3ccccc3c(=O)c12`, for which the GI50 in the test on SW-620, in the test on HOP-62, with A549, in the test on K562, with NCI-H522 and in the test on U-251 was > 100 µM (inactive) throughout. In addition, the GI50 with SNB-19, in the test on COLO 205, in the test with HCC 2998, with HOP-92, in the test on M14 and in the test on SF-268 was > 100 µM (inactive) each time. Besides, the GI50 in the test with MOLT-4, in the test with RXF 393 and in the test with SN12C was > 100 µM (inactive) throughout.
As to `CC1=C(C(=O)Nc2c(C)cccc2C)C(c2ccc3c(c2)OCO3)C(C(=O)Nc2c(C)cccc2C)=C(C)N1`, the GI50 in the test with SW-620 was 18.2 µM (inactive); in the test with HOP-62, 23.1 µM (inactive); in the test on A549, 19.7 µM (inactive); in the test with K562, 13.4 µM (inactive); in the test on NCI-H522, 14.9 µM (inactive); in the test on U-251, 15.5 µM (inactive). The GI50 in the test on SNB-19 is 15.3 µM (inactive); in the test with OVCAR-3, 36.3 µM (inactive); in the test on SK-MEL-28, 22.2 µM (inactive); with COLO 205, 21.9 µM (inactive); with HCC 2998, 18.1 µM (inactive); in the test on NCI-H226, 17.5 µM (inactive). Further, the GI50 in the test with M14 is 18.1 µM (inactive); with SF-268, 19.4 µM (inactive); in the test with MOLT-4, 15 µM (inactive); in the test on EKVX, 21.5 µM (inactive); in the test with RXF 393, 16.5 µM (inactive); in the test on SN12C it was 16.7 µM (inactive).
In the case of `CCCCCC(CN1CCOCC1)C(=O)/C=C/c1ccccc1` (stereo not drawn), the GI50 in the test with SW-620 was 1.74 µM (inactive); with HOP-62, 5 µM (inactive); in the test with A549, 3.3 µM (inactive); in the test with K562, 2.16 µM (inactive); in the test with U-251, 2.77 µM (inactive); in the test on SNB-19 it was 3.43 µM (inactive). For the same compound, the GI50 was 2.3 µM (inactive) in the test with OVCAR-3; 5.82 µM (inactive) in the test on SK-MEL-28; 3.77 µM (inactive) in the test with COLO 205; 2 µM (inactive) with HCC 2998; 3.36 µM (inactive) in the test with NCI-H226; 2.19 µM (inactive) in the test on HOP-92. Moreover, the GI50 is 2 µM (inactive) with M14; 1.94 µM (inactive) in the test on SF-268; 1.71 µM (inactive) in the test with MOLT-4; 10.4 µM (inactive) in the test on EKVX; 1.82 µM (inactive) in the test with RXF 393; 2.94 µM (inactive) with SN12C.
Consider `O=S(O)CCCCSSCC(O)C(O)CSSCCCCS(=O)O` (stereo not drawn), for which the GI50 is 21.5 µM (inactive) and 19.5 µM (inactive) in the test on SW-620; > 100 µM (inactive) with HOP-62; 34.5 µM (inactive) and 27.1 µM (inactive) with A549; 18.7 µM (inactive) and 12.6 µM (inactive) in the test on K562; 71.1 µM (inactive) and 50.6 µM (inactive) in the test with U-251; 50 µM (inactive) and 55.6 µM (inactive) in the test on SNB-19. For the same compound, the GI50 in the test with OVCAR-3 was 11.4 µM (inactive) and 12.4 µM (inactive); in the test on SK-MEL-28, 21.6 µM (inactive) and 14.9 µM (inactive); in the test with COLO 205 it was 18.5 µM (inactive) and 14.6 µM (inactive); with HOP-92 it was 26.4 µM (inactive) and 39.7 µM (inactive); with M14, 12.9 µM (inactive) and 9.08 µM (inactive); in the test on SF-268, 17.5 µM (inactive) and 12.2 µM (inactive). Further, the GI50 in the test with MOLT-4 was 918 nM (active) and 697 nM (active); in the test with EKVX, 26.9 µM (inactive) and 33.4 µM (inactive); in the test on RXF 393, 22.3 µM (inactive) and 14.7 µM (inactive); in the test on SN12C it was 40.5 µM (inactive) and 34.9 µM (inactive).
Take `[N-]=[N+]=NC1C(Cl)C(=O)NC(=O)N1[C@H]1C[C@H](O)[C@@H](CO)O1` (stereo partly drawn): the GI50 in the test on SW-620, with HOP-62, with A549, in the test with K562, in the test with U-251 and with SNB-19 was > 100 µM (inactive) each time. Further, the GI50 with OVCAR-3, in the test with SK-MEL-28, in the test on COLO 205, in the test on HCC 2998, with HOP-92 and in the test with M14 was > 100 µM (inactive) each time. Moreover, the GI50 in the test on MOLT-4, in the test with EKVX, with RXF 393 and in the test with SN12C was > 100 µM (inactive) throughout.

Values taken from ChEMBL document CHEMBL1201862, “PubChem BioAssay data set” (2004).
